{
  "source": "patent US9011853B2",
  "about": "“B7-H4 fusion proteins and methods of use thereof” (Amplimmune, Inc., priority 2009, dated 2015)",
  "key": {"DBA/1 mice": {"system": "DBA/1 mice", "experiment": "Therapeutic CIA study AA#80 (male mice), disease score", "type": "in vivo, mouse", "settings": "male DBA/1 mice; 20 mg/kg IP 3× weekly, 8 doses from Day 24; vs control groups (FIG. 8); 20 mg/kg", "method": "DBA/1 mice (10 per group) aged 7-9 weeks were used for the CIA model. Mice from several vendors (Jackson Laboratories, Harlan Laboratories, and Taconic Farms) were tested and it was determined that Taconic mice are most appropriate for the CIA studies. Taconic mice develop more consistent and severe disease symptoms and show continued disease progression, while mice from the other vendors often show stable, less severe disease, even in the absence of treatment. female (F) mice in AA#79 and male (M) mice in AA#80, were tested to determine which gender to use in future experiments.\nOn the day before the study is initiated, the hair on the right flank of each mouse was removed using an electric clipper. A metal identification tag was placed on the right ear of each mouse. On Day 0, mice were immunized with 100 μL of chicken collagen type II/Complete Freund's Adjuvant (CII/CFA) emulsion in the right flank. On Day 20, the hair on the left flank of each mouse was removed using an electric clipper, and on Day 21, mice were immunized with 100 μL of chicken collagen type II/Incomplete Freund's Adjuvant (CII/IFA) emulsion in the left flank. Pre-filled syringes of CII/CFA and CII/IFA emulsion purchased from Hooke Laboratories were used to ensure consistent dosing with and potency of the immunogen.\nEarly arthritis symptoms, such as erythema and mild swelling, usually appear on Day 21, and on Day 28, more severe symptoms such as swelling in many digits and inflammation extending to the tarsal joint are typically present. Each limb is evaluated for severity of arthritis symptoms three times a week using a widely accepted arthritis severity score system, shown in Table 2. The scores from each of the 4 limbs are summed to yield the disease score of each mouse. […]\nTreatment was initiated when the average disease score for the study animals was greater than four. This corresponded to Day 29 in AA#79 and Day 24 in […]. By waiting until animals are symptomatic, it was ensured that the model is performed in a therapeutic rather than prophylactic mode.\nB7-H4-Ig, RPA110010, and murine B7-H4-Ig proteins were administered by intraperitoneal (IP) injection 3 times a week for a total of 8 doses. RPA110010 is an extracellular domain variant of B7-H4-Ig, SEQ ID NO:126. Control murine and human IgG proteins were given once a week for a total of 3 doses. […] All proteins were diluted to the desired concentration (500 μg in 500 μL, or 1 mg/mL) with sterile PBS immediately before injection. Vehicle control mice receive Amplimmune formulation buffer diluted 1:10 in PBS, with an injection volume of 500 μL."}, "[1]": {"system": "serum levels of 58 analytes", "experiment": "Serum biomarker analysis, quantitative immunoassay multi-analyte profiling (Rules-Based Medicine RodentMAP v2.9), AA#80", "type": "in vivo, mouse", "method": "In AA#80, serum samples were collected on Day 27, Day 34, Day 41 and Day 55 via the submandibular vein. Approximately 200 μL of blood per mouse was collected in Microtainer® serum separator tubes. Serum was removed following centrifugation and stored at <−65° C. until analysis.\nSelected serum samples were sent to Rules-Based Medicine (Austin, Tex.) for quantitative immunoassay multi-analyte profiling of serum samples, with the goal of identifying biomarkers that could be used to monitor disease progression and response to B7-H4-Ig treatment. Day 27, Day 34, and Day 41 sera from the three representative mice in the B7-H4-Ig group (tag #3332, 3334, and 3338) and three representative mice in the Synagis® group (tag #3324, 3329, and 3330) were analyzed for levels of 58 analytes using the RodentMAP v2.9 Testing Service.\nData from the Rules-Based Medicine analysis was analyzed using Microsoft Excel and GraphPad Prism software. T-tests were performed to compare the levels of each analyte in the B7-H4-Ig versus Synagis® treated samples. No correction was made for multiple comparisons. Additionally, correlation coefficients were calculated for each analyte versus disease score."}},
  "note": "“Also recorded” adds a separate entry of the source.",
  "data": [
    {"substance": "B7-H4-Ig: B7-H4 extracellular domain fused to Ig Fc; bare label is the human protein in Example 3, murine protein in Examples 1, 2, 5, 7-11", "values": [
      {"measurement": "disease scores, AA#80", "setting": "DBA/1 mice", "value": "lower disease scores than mice in the control groups; also recorded: prolonged period of stable disease scores"},
      {"measurement": "serum IL-6 levels, difference between Synagis and B7-H4-Ig groups", "setting": "[1]; AA#80 serum (FIG. 11)", "value": "did not reach statistical significance"},
      {"measurement": "serum SAP levels", "setting": "[1]; B7-H4-Ig vs Synagis treated groups", "value": "not significantly different"},
      {"measurement": "serum MIP-2 levels", "setting": "[1]; Day 41, vs Synagis treated mice (FIG. 15)", "value": "significantly lower"},
      {"measurement": "serum ET-1 levels", "setting": "[1]; Day 41 and overall, vs Synagis treated mice (FIG. 10)", "value": "significantly lower"},
      {"measurement": "serum MCP-1 levels", "setting": "[1]; Day 41 and overall, vs Synagis treated mice (FIG. 12)", "value": "significantly lower"},
      {"measurement": "serum MCP-3 levels", "setting": "[1]; Day 41 and overall, vs Synagis treated mice (FIG. 14)", "value": "significantly lower"},
      {"measurement": "serum samples with TNF-α levels above the limit of detection", "setting": "[1]; all samples (Day 27, 34, 41) (FIG. 16)", "value": "none"}
    ]}
  ]
}
